From article PMC12150293 (RSC Advances, 2025)
Read-outs that look alike come from different tables or passages of the source.

Experiments:
[1] = system: MDA-MB-231 cells; assay: MTT cytotoxicity assay on breast cancer cells; conditions: for IC50: read-out: MDA-MB-231 IC50
[2] = system: A549 cells; assay: MTT cytotoxicity assay on non-small cell lung cancer cells; conditions: for IC50: read-out: A549 IC50
[3] = system: BEAS-2B cells; assay: MTT cytotoxicity assay on normal human lung epithelial cells; conditions: 48 h, read-out: BEAS-2B IC50
[4] = molecular target: EGFR^WT (Homo sapiens, UniProt P00533); assay: EGFR^WT kinase inhibition assay; type: biochemical
[5] = system: c-Myc; assay: mRNA expression; type: cell-based, human; conditions: MDA-MB-231 cells; reduction to
[6] = system: CD-44; assay: mRNA expression; type: cell-based, human; conditions: MDA-MB-231 cells; reduction to
[7] = system: CD-133; assay: mRNA expression; type: cell-based, human; conditions: MDA-MB-231 cells; reduction to
[8] = system: VEGF; assay: mRNA expression; type: cell-based, human; conditions: MDA-MB-231 cells; reduction to
[9] = system: TGF; assay: mRNA expression; type: cell-based, human; conditions: MDA-MB-231 cells; reduction to
[10] = system: c-Myc; assay: mRNA expression; type: cell-based, human; conditions: A549 cells
[11] = system: TGF; assay: mRNA expression; type: cell-based, human; conditions: A549 cells
[12] = system: miRNA-132; assay: miRNA-132 expression in MDA-MB-231 cells; type: cell-based, human; conditions: elevation
[13] = system: miRNA-200c; assay: miRNA-200c expression in MDA-MB-231 cells; type: cell-based, human; conditions: elevation
[14] = system: miRNA-132; assay: miRNA-132 expression in A549 cells; type: cell-based, human; conditions: enhancement
[15] = system: miRNA-200c; assay: miRNA-200c expression in A549 cells; type: cell-based, human; conditions: enhancement
[16] = system: caspase-3; assay: Caspase-3 activation assay; type: cell-based, human; conditions: A549 cells, compound at its IC50 concentration, 48 h
[17] = system: caspase-9; assay: Caspase-9 activation assay; type: cell-based, human; conditions: A549 cells, compound at its IC50 concentration, 48 h
[18] = molecular target: EGFR^L858R/T790M/C797S (Homo sapiens, UniProt P00533, C797S/L858R/T790M); assay: biochemical
Sequence of EGFR^L858R/T790M/C797S (P00533 25-1210 T790M/C797S/L858R): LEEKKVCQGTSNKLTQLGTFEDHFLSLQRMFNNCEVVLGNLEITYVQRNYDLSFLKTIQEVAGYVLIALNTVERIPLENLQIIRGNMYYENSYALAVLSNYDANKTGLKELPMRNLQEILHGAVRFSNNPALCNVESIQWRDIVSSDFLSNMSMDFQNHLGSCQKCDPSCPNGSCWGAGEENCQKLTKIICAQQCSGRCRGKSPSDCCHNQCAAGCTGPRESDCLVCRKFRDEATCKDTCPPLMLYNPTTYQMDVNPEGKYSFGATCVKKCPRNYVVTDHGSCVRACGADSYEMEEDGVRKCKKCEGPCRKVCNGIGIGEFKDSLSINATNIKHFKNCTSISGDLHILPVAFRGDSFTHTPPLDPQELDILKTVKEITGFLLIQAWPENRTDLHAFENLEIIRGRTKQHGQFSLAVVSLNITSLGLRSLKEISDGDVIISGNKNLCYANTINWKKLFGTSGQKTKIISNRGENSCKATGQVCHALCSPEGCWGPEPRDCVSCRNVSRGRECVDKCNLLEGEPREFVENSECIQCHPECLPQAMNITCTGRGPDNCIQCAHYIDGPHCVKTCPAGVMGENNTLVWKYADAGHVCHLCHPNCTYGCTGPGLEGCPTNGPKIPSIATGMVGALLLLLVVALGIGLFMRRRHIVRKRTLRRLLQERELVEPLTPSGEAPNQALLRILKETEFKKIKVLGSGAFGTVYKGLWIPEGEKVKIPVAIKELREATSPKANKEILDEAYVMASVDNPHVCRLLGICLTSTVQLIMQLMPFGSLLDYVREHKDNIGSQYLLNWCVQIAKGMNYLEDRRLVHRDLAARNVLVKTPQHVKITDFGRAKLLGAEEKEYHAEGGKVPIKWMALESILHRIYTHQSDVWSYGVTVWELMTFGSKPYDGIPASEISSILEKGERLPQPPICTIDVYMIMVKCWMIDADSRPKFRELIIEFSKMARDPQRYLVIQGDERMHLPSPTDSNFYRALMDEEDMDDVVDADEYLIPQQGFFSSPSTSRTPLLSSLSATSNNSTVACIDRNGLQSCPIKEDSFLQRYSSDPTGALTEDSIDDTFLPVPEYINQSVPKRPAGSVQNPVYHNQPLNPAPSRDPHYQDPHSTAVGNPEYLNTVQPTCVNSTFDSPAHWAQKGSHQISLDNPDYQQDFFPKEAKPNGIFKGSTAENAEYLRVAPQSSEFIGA

Sequence of EGFR^WT (P00533 25-1210): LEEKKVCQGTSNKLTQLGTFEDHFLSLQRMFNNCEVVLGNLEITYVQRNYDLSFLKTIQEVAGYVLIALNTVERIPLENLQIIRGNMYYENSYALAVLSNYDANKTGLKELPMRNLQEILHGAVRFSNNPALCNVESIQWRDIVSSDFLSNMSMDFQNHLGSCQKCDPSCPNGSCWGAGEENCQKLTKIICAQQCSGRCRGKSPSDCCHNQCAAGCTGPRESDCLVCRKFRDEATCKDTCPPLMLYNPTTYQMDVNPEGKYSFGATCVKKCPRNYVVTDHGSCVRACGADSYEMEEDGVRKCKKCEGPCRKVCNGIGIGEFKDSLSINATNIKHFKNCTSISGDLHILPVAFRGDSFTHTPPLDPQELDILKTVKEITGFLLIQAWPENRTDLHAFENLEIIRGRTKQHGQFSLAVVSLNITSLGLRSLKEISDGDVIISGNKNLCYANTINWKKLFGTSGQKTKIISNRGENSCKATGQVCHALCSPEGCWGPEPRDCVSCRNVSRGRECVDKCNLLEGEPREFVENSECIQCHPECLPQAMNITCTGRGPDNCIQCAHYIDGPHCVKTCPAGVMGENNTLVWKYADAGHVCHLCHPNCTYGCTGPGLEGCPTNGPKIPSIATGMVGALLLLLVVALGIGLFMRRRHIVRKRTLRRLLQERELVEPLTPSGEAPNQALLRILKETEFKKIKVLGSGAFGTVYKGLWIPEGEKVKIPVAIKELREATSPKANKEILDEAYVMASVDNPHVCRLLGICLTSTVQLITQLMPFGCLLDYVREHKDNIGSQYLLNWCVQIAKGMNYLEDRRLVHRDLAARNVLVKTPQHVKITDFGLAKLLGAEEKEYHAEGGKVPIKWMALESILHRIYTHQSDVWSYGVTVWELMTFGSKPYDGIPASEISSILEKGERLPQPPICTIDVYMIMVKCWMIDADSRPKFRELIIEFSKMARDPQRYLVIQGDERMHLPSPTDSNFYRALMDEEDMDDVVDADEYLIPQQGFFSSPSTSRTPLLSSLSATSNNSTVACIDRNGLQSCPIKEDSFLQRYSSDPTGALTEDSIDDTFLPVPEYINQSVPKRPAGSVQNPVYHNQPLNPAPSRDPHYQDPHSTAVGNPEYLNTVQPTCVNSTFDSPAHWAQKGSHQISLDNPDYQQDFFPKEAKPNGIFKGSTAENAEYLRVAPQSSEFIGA

Row | SMILES | IC50 ([1]; Homo sapiens, MDA-MB-231, 48 h) | IC50 ([2]; Homo sapiens, A549, 48 h) | IC50 [3] | other results
1 | O=C(NCC(=O)N(c1ccccc1)C(C(=O)Nc1ccc([N+](=O)[O-])cc1)c1ccc(C(F)(F)F)cc1)c1ccccc1 (stereo not shown) [Compound 11, N-(2-((2-((4-Nitrophenyl)amino)-2-oxo-1-(4-(trifluoromethyl)phenyl)ethyl)(phenyl)amino)-2-oxoethyl)benzamide] | 60.2 ± 4.9 µM | 53.9 ± 4.4 µM | 82.1 ± 7.3 µM | 
2 | Cc1ccc(N(C(=O)Cc2ccccc2)C(C(=O)Nc2ccc([N+](=O)[O-])cc2)c2ccc(C(F)(F)F)cc2)cc1 (stereo not shown) [Compound 10, N-(4-Nitrophenyl)-2-(2-phenyl-N-(p-tolyl)acetamido)-2-(4-(trifluoromethyl)phenyl)-acetamide] | 84.4 ± 6.9 µM | 71.5 ± 6.8 µM | 83.3 ± 6.8 µM | 
3 | O=C(Nc1ccc([N+](=O)[O-])cc1)C(c1ccc(C(F)(F)F)cc1)N(C(=O)c1ccccc1Cl)c1ccccc1 (stereo not shown) [Compound 5, 2-Chloro-N-(2-((4-nitrophenyl)amino)-2-oxo-1-(4-(trifluoromethyl)phenyl)ethyl)-N-phenylbenzamide] | 10.1 ± 0.6 µM | 6.2 ± 0.3 µM | 70.4 ± 5.1 µM | IC50 [4]: 0.0021 ± 1e-05 µM; expression of c-Myc compared to untreated control [5]: 0.36 fold; expression of CD-44 compared to untreated control [6]: 0.5 fold; expression of CD-133 compared to untreated control [7]: 0.7 fold; expression of VEGF compared to untreated control [8]: 0.5 fold; expression of TGF compared to untreated control [9]: 0.4 fold; fold reduction in the expression of c-Myc in comparison to untreated control [10]: 0.41 fold; fold reduction in the expression of TGF in comparison to untreated control [11]: 0.69 fold; miRNA-132 expression, fold change compared to control [12]: 3.8 fold; miRNA-200c expression, fold change compared to control [13]: 3.1 fold; miRNA-132 expression, fold change compared to control [14]: 2.4 fold; miRNA-200c expression, fold change compared to control [15]: 1.9 fold; upregulation of caspase-3 compared to the untreated control [16]: 1.8 folds; upregulation of caspase-9 compared to the untreated control [17]: 2.3 folds; IC50 [18]: 0.19 ± 0.05 µM; fold more potent than 5-FU ([1]; MDA-MB-231 cells, ratio of IC50 values): 1.42 fold; fold more potent than 5-FU ([2]; A549 cells, ratio of IC50 values): 1.82 fold
4 | O=c1[nH]cc(F)c(=O)[nH]1 [Compound 5-FU, 5-fluorouracil, reference compound] | 14.4 ± 0.9 µM | 11.3 ± 1.1 µM | 7.2 ± 0.5 µM | 
5 | Cc1ccc(N(C(=O)c2ccccc2I)C(C(=O)Nc2ccc([N+](=O)[O-])cc2)c2ccc(C(F)(F)F)cc2)cc1 (stereo not shown) [Compound 8, 2-Iodo-N-(2-((4-nitrophenyl)amino)-2-oxo-1-(4-(trifluoromethyl)phenyl)ethyl)-N-(p-tolyl)-benzamide] | 27.1 ± 1.8 µM | 20.5 ± 1.1 µM | 62.2 ± 4.2 µM | 
6 | O=C(Nc1ccc([N+](=O)[O-])cc1)C(c1ccc(C(F)(F)F)cc1)N(C(=O)c1ccc2ccccc2n1)c1ccccc1 (stereo not shown) [Compound 18, N-(2-((4-Nitrophenyl)amino)-2-oxo-1-(4-(trifluoromethyl)phenyl)ethyl)-N-phenylquinoline-2-carboxamide] | 25.1 ± 1.9 µM | 20.1 ± 1.4 µM | 55.7 ± 3.5 µM | 
7 | Cc1ccc(N(C(=O)/C=C/c2ccc(C(F)(F)F)cc2)C(C(=O)Nc2ccc([N+](=O)[O-])cc2)c2ccccc2)cc1 (stereo not shown) [Compound 24, (E)-N-(2-((4-Nitrophenyl)amino)-2-oxo-1-phenylethyl)-N-(p-tolyl)-3-(4-(trifluoromethyl)-phenyl)acrylamide] | 22.1 ± 1.6 µM | 20.4 ± 1.7 µM | 54.2 ± 4.1 µM | 
8 | O=C(Nc1ccc([N+](=O)[O-])cc1)C(c1ccc(C(F)(F)F)cc1)N(Cc1ccccc1)C(=O)CNS(=O)(=O)c1ccccc1 (stereo not shown) [Compound 17, N-Benzyl-N-(2-((4-nitrophenyl)amino)-2-oxo-1-(4-(trifluoromethyl)phenyl)ethyl)-2-(phenylsulfonamido)acetamide] | 57 ± 4.8 µM | 40.8 ± 2.8 µM | 50.2 ± 3.4 µM | 
9 | O=C(Nc1ccc([N+](=O)[O-])cc1)C(c1ccc(C(F)(F)F)cc1)N(Cc1ccccc1)C(=O)Cc1ccccc1 (stereo not shown) [Compound 15, N-Benzyl-N-(2-((4-nitrophenyl)amino)-2-oxo-1-(4-(trifluoromethyl)phenyl)-ethyl)-2-phenyl-acetamide] | 65.7 ± 5.4 µM | 61.1 ± 4.5 µM | 69.4 ± 4.7 µM | 
10 | Cc1ccc(N(C(=O)c2ccc3ccccc3n2)C(C(=O)Nc2ccc([N+](=O)[O-])cc2)c2ccc(C(F)(F)F)cc2)cc1 (stereo not shown) [Compound 19, N-(2-((4-Nitrophenyl)amino)-2-oxo-1-(4-(trifluoromethyl)phenyl)ethyl)-N-(p-tolyl)-quinoline-2-carboxamide] | 73.1 ± 5.7 µM | 46.2 ± 4.1 µM | 50.1 ± 3.3 µM | 
11 | O=C(Nc1ccc([N+](=O)[O-])cc1)C(c1ccc(C(F)(F)F)cc1)N(C(=O)CNS(=O)(=O)c1ccccc1)c1ccccc1 (stereo not shown) [Compound 13, N-(4-Nitrophenyl)-2-(N-phenyl-2-(phenylsulfonamido)acetamido)-2-(4-(trifluoromethyl)-phenyl)acetamide] | 73.9 ± 5.3 µM | 64.1 ± 5.9 µM | 98.5 ± 7.4 µM | 
12 | O=C(Nc1ccc([N+](=O)[O-])cc1)C(c1ccc(C(F)(F)F)cc1)N(C(=O)c1ccccc1I)c1ccccc1 (stereo not shown) [Compound 7, 2-Iodo-N-(2-((4-nitrophenyl)amino)-2-oxo-1-(4-(trifluoromethyl)phenyl)ethyl)-N-phenyl-benzamide] | 28.2 ± 1.4 µM | 20.6 ± 1.5 µM | 75.6 ± 5.8 µM | 
13 | O=C(NCC(=O)N(Cc1ccccc1)C(C(=O)Nc1ccc([N+](=O)[O-])cc1)c1ccc(C(F)(F)F)cc1)c1ccccc1 (stereo not shown) [Compound 16, N-(2-(Benzyl(2-((4-nitrophenyl)amino)-2-oxo-1-(4-(trifluoromethyl)phenyl)ethyl)amino)-2-oxoethyl)benzamide] | 27.3 ± 1.5 µM | 22.4 ± 0.8 µM | 63.8 ± 4.8 µM | 
14 | Cc1ccc(N(C(=O)CNC(=O)c2ccccc2)C(C(=O)Nc2ccc([N+](=O)[O-])cc2)c2ccc(C(F)(F)F)cc2)cc1 (stereo not shown) [Compound 12, N-(2-((2-((4-Nitrophenyl)amino)-2-oxo-1-(4-(trifluoromethyl)phenyl)ethyl)(p-tolyl)amino)-2-oxoethyl)benzamide] | 65.3 ± 4.7 µM | 73.1 ± 6.6 µM | 98.2 ± 8.1 µM | 
15 | O=C(Nc1ccc([N+](=O)[O-])cc1)C(c1ccccc1)N(Cc1ccccc1)C(=O)/C=C/c1ccc(C(F)(F)F)cc1 (stereo not shown) [Compound 25, (E)-N-Benzyl-N-(2-((4-nitrophenyl)amino)-2-oxo-1-phenylethyl)-3-(4-(trifluoromethyl)-phenyl)acrylamide] | 95.4 ± 8.1 µM | 90.2 ± 8.5 µM | 129 ± 8.7 µM | 
16 | O=C(Nc1ccc([N+](=O)[O-])cc1)C(c1ccc(C(F)(F)F)cc1)N(C(=O)Cc1ccccc1)c1ccccc1 (stereo not shown) [Compound 9, 2-(N,2-Diphenylacetamido)-N-(4-nitrophenyl)-2-(4-(trifluoromethyl)phenyl)acetamide] | 70.6 ± 6.1 µM | 46.4 ± 2.8 µM | 71.6 ± 5.7 µM | 
17 | Cc1ccc(N(C(=O)c2ccccc2Cl)C(C(=O)Nc2ccc([N+](=O)[O-])cc2)c2ccc(C(F)(F)F)cc2)cc1 (stereo not shown) [Compound 6, 2-Chloro-N-(2-((4-nitrophenyl)amino)-2-oxo-1-(4-(trifluoromethyl)phenyl)-ethyl)-N-(p-tolyl)benzamide] | 54.2 ± 4.7 µM | 39.9 ± 2.7 µM | 50.1 ± 3.6 µM | 
18 | O=C(Nc1ccc([N+](=O)[O-])cc1)C(c1ccccc1)N(C(=O)/C=C/c1ccc(C(F)(F)F)cc1)c1ccccc1 (stereo not shown) [Compound 23, (E)-N-(2-((4-Nitrophenyl)amino)-2-oxo-1-phenylethyl)-N-phenyl-3-(4-(trifluoromethyl)-phenyl)acrylamide] | 30.3 ± 2.4 µM | 26.1 ± 2.1 µM | 30.9 ± 2.3 µM | 
19 | Cc1ccc(N(C(=O)CNS(=O)(=O)c2ccccc2)C(C(=O)Nc2ccc([N+](=O)[O-])cc2)c2ccc(C(F)(F)F)cc2)cc1 (stereo not shown) [Compound 14, N-(4-Nitrophenyl)-2-(2-(phenylsulfonamido)-N-(p-tolyl)acetamido)-2-(4-(trifluoromethyl)-phenyl)acetamide] | 74.8 ± 6.1 µM | 55.3 ± 4.2 µM | 84.7 ± 6.9 µM | 
20 | N.N.[Cl][Pt][Cl] [Cisplatin, cisplatin, reference compound] |  |  |  | IC50 ([1]; MTT assay, 48 h, mean ± SEM): 12.2 ± 0.8 µM; IC50 ([2]; MTT assay, 48 h, mean ± SEM): 10.1 ± 0.7 µM
